Structures can show the parent of a compound that is named as a salt.
Target: T1, human TRPV4 (Homo sapiens, UniProt Q9HBA0)
T1 construct: expressed in transfected cells
Assay: Fluorometric cell-based Ca2+ flux assay, HEK-293 cells stably overexpressing human TRPV4
Settings: HEK-293 stably overexpressing human TRPV4; agonist GSK1016790A 30 nM
Summary of the method: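 HEK-293 cells stably overexpressing human TRPV4, Fluo 4-loaded, pre-incubated 30 min at 37° C with compound, then stimulated with 30 nM GSK1016790A (final). Max ΔF/s over 1 min, media-corrected, expressed relative to no-antagonist control; IC50 from ≥8 concentrations, ≥3 replicates.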

T1 sequence (Q9HBA0 whole entry): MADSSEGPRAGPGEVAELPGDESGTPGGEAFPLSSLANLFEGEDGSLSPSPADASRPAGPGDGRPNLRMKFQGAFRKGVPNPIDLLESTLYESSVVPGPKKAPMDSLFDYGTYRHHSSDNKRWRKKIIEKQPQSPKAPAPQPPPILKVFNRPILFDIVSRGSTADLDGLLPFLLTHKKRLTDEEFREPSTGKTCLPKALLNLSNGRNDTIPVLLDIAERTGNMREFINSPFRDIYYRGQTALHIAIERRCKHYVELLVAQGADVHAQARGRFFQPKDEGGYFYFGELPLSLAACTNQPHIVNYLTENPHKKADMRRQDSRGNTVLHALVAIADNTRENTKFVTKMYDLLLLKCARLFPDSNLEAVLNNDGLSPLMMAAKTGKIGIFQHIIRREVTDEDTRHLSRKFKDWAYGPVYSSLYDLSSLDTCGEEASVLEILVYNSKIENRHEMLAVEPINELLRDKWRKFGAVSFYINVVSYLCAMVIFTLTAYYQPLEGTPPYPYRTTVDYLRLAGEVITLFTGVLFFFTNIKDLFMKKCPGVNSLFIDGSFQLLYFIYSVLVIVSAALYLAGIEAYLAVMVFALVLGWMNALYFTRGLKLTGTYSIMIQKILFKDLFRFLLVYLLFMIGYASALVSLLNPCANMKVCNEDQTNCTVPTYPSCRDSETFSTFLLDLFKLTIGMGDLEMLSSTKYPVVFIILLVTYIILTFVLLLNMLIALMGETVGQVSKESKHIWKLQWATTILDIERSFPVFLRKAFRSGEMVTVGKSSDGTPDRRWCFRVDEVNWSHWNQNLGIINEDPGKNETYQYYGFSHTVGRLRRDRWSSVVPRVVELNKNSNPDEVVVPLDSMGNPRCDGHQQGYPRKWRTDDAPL

| Compound | IC50 |
| --- | --- |
| COC(=O)c1ccc(S(=O)(=O)N2CC(CO)(COc3ccc(C#N)c(F)c3)C2)cc1 [Compound 63, Methyl 4-((3-((4-cyano-3-fluorophenoxy)methyl)-3-(hydroxymethyl)azetidin-1-yl)sulfonyl)benzoate] | 5 µM |
| CN(C)C1(COc2ccc(C#N)c(F)c2)CN(S(=O)(=O)c2ccc(Cl)cc2Cl)C1 [Compound 54, 4-((1-((2,4-Dichlorophenyl)sulfonyl)-3-(dimethylamino)azetidin-3-yl)methoxy)-2-fluorobenzonitrile] | 1.24 µM |
| N#Cc1ccc(OCC2(CO)CN(S(=O)(=O)c3ccc(Cl)cc3Cl)C2)cc1 [Compound 3, 4-((1-((2,4-Dichlorophenyl)sulfonyl)-3-(hydroxymethyl)azetidin-3-yl)methoxy)benzonitrile] | 0.27 µM |
| CC(C)(C)OC(=O)NC1(COc2ccc(C#N)c(F)c2)CN(S(=O)(=O)c2ccc(Cl)cc2Cl)C1 [Compound 51, tert-Butyl (3-((4-cyano-3-fluorophenoxy)methyl)-1-((2,4-dichlorophenyl)sulfonyl)azetidin-3-yl)carbamate] | 3.35 µM |
| N#Cc1ccc(OCC2(CNC[C@@H]3CCCO3)CN(S(=O)(=O)c3ccc(Cl)cc3Cl)C2)cc1F [Compound 28, (S)-4-((1-((2,4-dichlorophenyl)sulfonyl)-3-((((tetrahydrofuran-2-yl)methyl)amino)methyl)azetidin-3-yl)methoxy)-2-fluorobenzonitrile hydrochloride] | 0.0087 µM |
| Cc1nn(C)cc1S(=O)(=O)N1CC(CO)(COc2ccc(C#N)c(F)c2)C1 [Compound 66, 4-((1-((1,3-Dimethyl-1H-pyrazol-4-yl)sulfonyl)-3-(hydroxymethyl)azetidin-3-yl)methoxy)-2-fluorobenzonitrile] | 10 µM |
| COc1cc(C#N)ccc1OCC1(CO)CN(S(=O)(=O)c2ccc(Cl)cc2Cl)C1 [Compound 98, 4-((1-((2,4-Dichlorophenyl)sulfonyl)-3-(hydroxymethyl)azetidin-3-yl)methoxy)-3-methoxybenzonitrile] | 0.0672 µM |
| C[C@@H](O)CNCC1(COc2ccc(C#N)c(F)c2)CN(S(=O)(=O)c2ccc(Cl)cc2Cl)C1 [Compound 30, (R)-4-((1-((2,4-Dichlorophenyl)sulfonyl)-3-(((2-hydroxypropyl)amino)methyl)azetidin-3-yl)methoxy)-2-fluorobenzonitrile hydrochloride] | 0.0003 µM |
| N#Cc1cccc(OCC2(CO)CN(S(=O)(=O)c3ccc(Cl)cc3Cl)C2)c1 [Compound 89, 3-((1-((2,4-Dichlorophenyl)sulfonyl)-3-(hydroxymethyl)azetidin-3-yl)methoxy)benzonitrile] | 1 to 3 µM |
| CC(CO)CNCC1(COc2ccc(C#N)c(F)c2)CN(S(=O)(=O)c2ccc(Cl)cc2Cl)C1 (stereo not drawn) [Compound 34, 4-((1-((2,4-Dichlorophenyl)sulfonyl)-3-(((3-hydroxy-2-methylpropyl)amino)methyl)azetidin-3-yl)methoxy)-2-fluorobenzonitrile hydrochloride] | 0.0002 µM |
| N#Cc1ccc(OCC2(CN[C@H]3CC[C@H](O)CC3)CN(S(=O)(=O)c3ccc(Cl)cc3Cl)C2)cc1F [Compound 41, 4-((1-((2,4-Dichlorophenyl)sulfonyl)-3-((((trans)-4-hydroxycyclohexyl)amino)methyl)azetidin-3-yl)methoxy)-2-fluorobenzonitrile hydrochloride] | 0.0003 µM |
| Cc1ccc(S(=O)(=O)N2CC(CO)(COc3ccc(C#N)c(F)c3)C2)c(C)c1 [Compound 62, 4-((1-((2,4-Dimethylphenyl)sulfonyl)-3-(hydroxymethyl)azetidin-3-yl)methoxy)-2-fluorobenzonitrile] | 0.472 µM |
| N#Cc1ccc(OCC2(CO)CN(S(=O)(=O)c3cc(Cl)cc(Cl)c3)C2)cc1F [Compound 68, 4-((1-((3,5-Dichlorophenyl)sulfonyl)-3-(hydroxymethyl)azetidin-3-yl)methoxy)-2-fluorobenzonitrile] | 5 µM |
| N#Cc1ccc(OCC2(CN3CCOCC3)CN(S(=O)(=O)c3ccc(Cl)cc3Cl)C2)cc1F [Compound 50, 4-((1-((2,4-Dichlorophenyl)sulfonyl)-3-(morpholinomethyl)azetidin-3-yl)methoxy)-2-fluorobenzonitrile hydrochloride] | 0.794 µM |
| CCNCC1(COc2ccc(C#N)c(F)c2)CN(S(=O)(=O)c2ccc(Cl)cc2Cl)C1 [Compound 25, 4-((1-((2,4-Dichlorophenyl)sulfonyl)-3-((ethylamino)methyl)azetidin-3-yl)methoxy)-2-fluorobenzonitrile hydrochloride] | 0.001 µM |
| N#Cc1ccc(OCC2(NS(=O)(=O)CCN)CN(S(=O)(=O)c3ccc(Cl)cc3Cl)C2)cc1F [Compound 57, 2-Amino-N-(3-((4-cyano-3-fluorophenoxy)methyl)-1-((2,4-dichlorophenyl)sulfonyl)azetidin-3-yl)ethane-1-sulfonamide hydrochloride] | 0.053 µM |
| CNC(=O)C1(COc2ccc(C#N)cc2)CN(S(=O)(=O)c2ccc(Cl)cc2Cl)C1 [Compound 4, 3-((4-Cyanophenoxy)methyl)-1-((2,4-dichlorophenyl)sulfonyl)-N-methylazetidine-3-carboxamide] | 4.6 µM |
| Cc1ccc(S(=O)(=O)N2CC(CO)(COc3ccc(C#N)c(F)c3)C2)cc1 [Compound 73, 2-Fluoro-4-((3-(hydroxymethyl)-1-tosylazetidin-3-yl)methoxy)benzonitrile] | 3 µM |
| N#Cc1ccc(OCC2(CNCCCO)CN(S(=O)(=O)c3ccc(Cl)cc3Cl)C2)cc1F [Compound 19, 4-((1-((2,4-Dichlorophenyl)sulfonyl)-3-(((3-hydroxypropyl)amino)methyl)azetidin-3-yl)methoxy)-2-fluorobenzonitrile hydrochloride] | 0.0005 µM |
| N#Cc1ccc(OCC2(CNCC(O)CO)CN(S(=O)(=O)c3ccc(Cl)cc3Cl)C2)cc1F (stereo not drawn) [Compound 33, 4-((1-((2,4-Dichlorophenyl)sulfonyl)-3-(((2,3-dihydroxypropyl)amino)methyl)azetidin-3-yl)methoxy)-2-fluorobenzonitrile hydrochloride] | 0.0003 µM |
| N#Cc1ccc(OCC2(C(=O)O)CN(S(=O)(=O)c3ccc(Cl)cc3Cl)C2)cc1 [Compound 2, 3-((4-Cyanophenoxy)methyl)-1-((2,4-dichlorophenyl)sulfonyl)azetidine-3-carboxylic acid] | ≥ 50 µM |
| N#Cc1ccc(OCC2(CNC(=O)CO)CN(S(=O)(=O)c3ccc(Cl)cc3Cl)C2)cc1F [Compound 47, N-((3-((4-Cyano-3-fluorophenoxy)methyl)-1-((2,4-dichlorophenyl)sulfonyl)azetidin-3-yl)methyl)-2-hydroxyacetamide] | 0.348 µM |
| Cc1cc(F)ccc1S(=O)(=O)N1CC(CO)(COc2ccc(C#N)c(F)c2)C1 [Compound 77, 2-Fluoro-4-((1-((4-fluoro-2-methylphenyl)sulfonyl)-3-(hydroxymethyl)azetidin-3-yl)methoxy)benzonitrile] | > 2.5 µM |
| N#Cc1ccc(OCC2(CO)CN(S(=O)(=O)c3ccc(OC(F)(F)F)cc3C#N)C2)cc1F [Compound 107, 4-((1-((2-Cyano-4-trifluoromethoxyphenyl)sulfonyl)-3-(hydroxymethyl)azetidin-3-yl)methoxy)-2-fluorobenzonitrile] | 0.08 µM |
| CC(=O)NC1(COc2ccc(C#N)c(F)c2)CN(S(=O)(=O)c2ccc(Cl)cc2Cl)C1 [Compound 53, N-(3-((4-Cyano-3-fluorophenoxy)methyl)-1-((2,4-dichlorophenyl)sulfonyl)azetidin-3-yl)acetamide] | 0.088 µM |
| N#Cc1ccc(OCC2(CNC[C@H]3CCCO3)CN(S(=O)(=O)c3ccc(Cl)cc3Cl)C2)cc1F [Compound 40, (R)-4-((1-((2,4-dichlorophenyl)sulfonyl)-3-((((tetrahydrofuran-2-yl)methyl)amino)methyl)azetidin-3-yl)methoxy)-2-fluorobenzonitrile hydrochloride] | 0.0134 µM |
| N#Cc1ccc(OCC2(CO)CN(S(=O)(=O)c3c(Cl)cccc3Cl)C2)cc1F [Compound 75, 4-((1-((2,6-Dichlorophenyl)sulfonyl)-3-(hydroxymethyl)azetidin-3-yl)methoxy)-2-fluorobenzonitrile] | > 1.3 µM |
| COc1cc(C#N)c(F)cc1OCC1(CO)CN(S(=O)(=O)c2ccc(Cl)cc2Cl)C1 [Compound 108, 4-((1-((2,4-Dichlorophenyl)sulfonyl)-3-(hydroxymethyl)azetidin-3-yl)methoxy)-2-fluoro-5-methoxybenzonitrile] | 0.528 µM |
| N#Cc1ccc(OCC2(CO)CN(S(=O)(=O)c3ccc(Cl)cc3Cl)C2)c(Cl)c1 [Compound 88, 3-Chloro-4-((1-((2,4-dichlorophenyl)sulfonyl)-3-(hydroxymethyl)azetidin-3-yl)methoxy)benzonitrile] | 0.5 µM |
| COc1ccc(S(=O)(=O)N2CC(CO)(COc3ccc(C#N)c(F)c3)C2)c(Cl)c1 [Compound 83, 4-((1-((2-chloro-4-methoxyphenyl)sulfonyl)-3-(hydroxymethyl)azetidin-3-yl)methoxy)-2-fluorobenzonitrile] | > 0.064 µM |
